Test results taken from patent US12168008B2, “Oxabicycloheptanes for modulation of immune response” (LIXTE BIOTECHNOLOGY, INC., priority 2016, dated 2024).

Columns and labels:
[1] = test system: mTORC1, mTORC2 and PI(3)K-AKT pathways; assay: Phosphoflow of AKT and S6 in activated CD3 cells; assay type: cell-based, mouse; settings: after 3 hours of activation
Protocol: After 3 hours of in vitro activation of isolated CD3 cells, the activity of mTORC1, mTORC2 and PI(3)K-AKT pathways were assessed by checking the phosphorylation of ribosomal S6 protein (S6), AKT at […] and AKT at Thr308 respectively. […] This difference was not observed in any of the 3 pathways at an early time point of 30 minutes after activation (FIG. 37).
Isolation of TILs—Mice were injected in the right thoracic flank with 0.5×10^6 CT26 cells and treated as above after tumors reached between 50-100 mm^3. After 2 treatments, mice were sacrificed and tumors excised. Tumors were subjected to mechanical disruption using a GentleMACS Dissociator (Miltenyi Biotec) in presence of enzymatic digestion using Tumor Dissociation Kit (Miltenyi Biotec). Intracellular cytokine staining, phosphoflow and flow cytometry—Suspensions containing T cells were stained with a fixable live/dead stain (Invitrogen) in PBS followed by surface antibody staining in FACS buffer (PBS with 0.5% BSA and 0.1% sodium azide). For intracellular staining, cells were stained for surface molecules following by fixation and permeabilization (eBioscience). For cytokine staining, cells were first stimulated with Cell Stimulation Cocktail (eBioscience) containing PMA/Ionomycin and protein transport inhibitor prior to undergoing staining. […] Cells were analyzed by flow cytometry (LSRII; BD Bioscience). […]

clinical = assay type: in vivo, human; settings: in vivo; for half-life: 2.33 mg/m2, T1/2
Protocol: The main objective was to determine the safety, tolerability, and maximum tolerated dose of LB-100 given intravenously daily for three consecutive days every 3 weeks. The secondary objectives were to document any evidence of potential anti-tumor activity and obtain pharmacokinetic data on LB-100 and a metabolite, endothall, in patients receiving LB-100 at the MTD (Quang et al., 2016).
The plasma concentrations of LB-100 and endothall were measured (Quang et al., 2016) prior to and over 4 hours after completion of the 2-hour infusion at the MTD of 2.33 mg/m2 of LB-100 on day 1 in one patient and on day 1 and 3 in two patients. […] Plasma concentrations of endothall were low throughout the infusion, being below the lower limit of detection (5 ng/mL) in one patient.

B16F10 cells = assay: B16F10 melanoma tumor prevention model; assay type: in vivo, mouse; settings: day 15 after tumor implantation
Protocol: LB-100 and aPD-1 enhance anti-tumor activity in B16 melanoma without histologic evidence of autoimmunity: It was next determined whether LB-100/aPD-1 combination was effective against other aPD-1 resistant tumor. In a tumor prevention model, 6-8 weeks old C57BL/6 mice were randomized into four treatment groups: PBS, LB-100, aPD-1 and combination. B16F10 cells (2.5×10^5) were inoculated 2 days after initiation of treatment subcutaneously in the right thoracic flank. Treatments were administered every two days following survival (FIG. 34A). By day 15 after tumor implantation, there was no difference between control and the single agent arms.
Syngeneic tumor models—Mice were maintained and experiments were conducted with the approval of the NINDS Animal Use and Care Committees. For CT26 tumors: BALB/c (6-8 wk old) were purchased from Charles River Laboratory. CT26 cells (0.5×10^6) were injected into the right flank subcutaneously. […] Treatments were given every 2 days for 30 days. […]

[2] = test system: Primary human T cells and Jurkat T cells; assay: In vitro studies PP2A and CTLA4 (Example 2); assay type: cell-based
Protocol: Primary human T cells and Jurkat T cells are treated with LB-100 and T-cell activation levels measured. LB-100 increases activation of the T cells.
Primary human T cells and Jurkat T cells are treated with LB-100 and PP2A:CTLA-4 interaction is assessed. LB-100 decreases the interaction of PP2A and CTLA-4.
Primary human T cells and Jurkat T cells are treated with LB-100 and levels of PP2A phosphorylation are measured. LB-100 increases phosphorylation in the T cells.

[3] = test system: tumor infiltrating lymphocytes; assay: Flow cytometry of tumor infiltrating lymphocytes, spleen and draining lymph node in CT26-bearing mice; assay type: in vivo, mouse
Protocol: The treatment effect was assessed on tumor infiltrating lymphocytes (FIGS. 23A-B). CT26 tumor-bearing mice were treated with LB-100 and/or anti-PD-1 antibodies as above. After 12 days of treatment, tumors were analyzed by FACS. […] In addition, given the known importance of PP2A in Treg, the effect of LB-100 and/or anti-PD-1 treatment was examined on the amount of Tregs present in the tumor. […] This effect is similar in degree to the effect on Tregs depletion by anti-PD-1 or the combination.
Enhanced activation of lymphocytes with combination treatment: To address the cellular mechanism mediating tumor rejection by the LB-100/aPD-1 combination, the status of the immune system in the secondary lymphoid organs and in the tumor were examined. Mice were implanted with CT26 tumors and treated with LB-100 and/or aPD-1 as described above. On day 3, after two treatments, the spleens, tumor draining lymph nodes (dLN) and tumors were harvested and analyzed by flow cytometry (FIG. 26-27). In the secondary lymphoid tissue, a greater activation of CD8+ T cells in mice treated with the combination regimen compared to controls was observed, as indicated by greater frequency of CD44+CD62L-CD8+ T cells (FIG. 26A-C). […] There was no difference in frequency of CD44+CD62L− subset in CD4+ T cells in both the spleen and dLN (FIGS. 28A and 29A). Immune check point markers, including expression of PD-1, CTLA4, TIM3 and Ox40 on CD8+ and CD4+ T cells were examined in the tumor draining lymph node and spleen (FIGS. 28 and 29).
Isolation of TILs—Mice were injected in the right thoracic flank with 0.5×10^6 CT26 cells and treated as above after tumors reached between 50-100 mm^3. After 2 treatments, mice were sacrificed and tumors excised. Tumors were subjected to mechanical disruption using a GentleMACS Dissociator (Miltenyi Biotec) in presence of enzymatic digestion using Tumor Dissociation Kit (Miltenyi Biotec). […] Cells were analyzed by flow cytometry (LSRII; BD Bioscience). […]

## CN1CCN(C(=O)C2C(C(=O)O)[C@H]3CC[C@@H]2O3)CC1 (stereo partly shown) [LB-100]
[1]
  activity of mTORC1 as measured by phosphorylation of S6: dose dependent increase
  mTORC2 and PI(3)K-AKT pathways (AKT phosphorylation): minimal effect
clinical; female, human
  half-life: 1.35 h
clinical
  pharmacokinetics of LB-100, in words: low clearance, low volume of distribution, and a short half-life
clinical; male, human, 2.33 mg/m2
  T1/2: 0.95 h
clinical; male, human
  half-life: 1.1 h
B16F10 cells
  tumor size, single agent arms vs control: no difference
[2]
  PP2A:CTLA-4 interaction: decreases
  T-cell activation levels: increases
  levels of PP2A phosphorylation in the T cells: increases
[3]; after 12 days of treatment, control 14.7
  Tregs in the tumor: 2.1%
[3]; day 3, after two treatments, control 13.0
  CD44+CD62L-CD8+ T cells in the spleen: 16.6%
[3]; mouse, in vivo
  PD-1 expression in CD4+ and CD8+ TILs: did not further alter PD-1 expression
